According to article PMC6316846, “Pretargeted Imaging with Gallium-68—Improving the Binding Capability by Increasing the Number of Tetrazine Motifs” (Pharmaceuticals, 2018):
Like-named read-outs stand apart in the source and are kept apart here.

Experiments:
[1] = tested on: CD20-expressing Raji cells; assay: FACS analysis of antibody binding to Raji cells; assay type: cell-based; settings: antibody at 20 µM, APC-labelled anti-human IgG Fc secondary antibody
Procedure: The humanoid lymphoblast-like CD20-expressing B-lymphocyte cells (Raji cells) were purchased from American Type Culture Collection (ATCC, Manassas, VA, USA). Flow cytometric analysis of CD20 expression was evaluated on (Raji cells) adjusted to 5 × 10^5 cells/sample in DMEM (including 10% FCS, 1% Pen/Strep). Cells were incubated with FC-Block (containing CD16/CD32 (1:200), e-Bioscience, Thermo Fisher Scientific, Vienna, Austria) for 15 min at 4 °C in order to avoid signals from non-specific binding. The following antibodies were used: RTX-TCO and RTX, both at 20 µM (f. c.). As secondary antibody a APC-labelled anti-human IgG Fc (clone: HP6017; BioLedgend, San Diego, CA, USA) at a dilution of 1:100 was used. Antibodies were incubated for at least 15 min at 4 °C. FACS analysis was performed on BD LSRFortessa™ (Cell Analyzer, BD Bioscience, San Jose, CA, USA). As internal control samples unstained or stained with either primary or secondary antibodies were analyzed. FACS-data was analyzed by FlowJo v10 software.

[2] = Serum protein binding, Sephadex G-50 size exclusion; assay type: in vitro ADME; settings: ^68Ga-labelled compound, human serum, 37 °C, mean ± SD (n = 3)
Procedure: Serum protein binding was determined using Sephadex G-50 (GE Healthcare Vienna, Austria) size exclusion chromatography. Aliquots (50 µL, n = 3) of the radioligand solution (~10 µM) were incubated in 450 µL freshly prepared human serum or 450 µL PBS (controls) and were kept at 37 °C. After 1, 2, and 4 h aliquots (25 µL) were directly transferred to the column (MicroSpin G-50, GE Healthcare) and after centrifugation (2 min, 2000 rcf) the column containing the free conjugate and the eluate containing the protein-bound conjugate were measured in the gamma counter. The percent of activity in both fractions was calculated thereafter.

[3] = Distribution coefficient (logD), octanol/PBS; assay type: physicochemical; settings: mean ± SD (n = 3); for LogD (pH 7.4): ^68Ga-labelled compound
Procedure: To determine the distribution of the ^68Ga-labelled conjugates between an organic (octanol) and aqueous (PBS) layer, aliquots (50 µL) of the tracers (~5 µM) were diluted in 1 mL of octanol/PBS (1:1, v/v). The mixture was vortexed at 1400 rpm (MS 3 basic vortexer, IKA, Staufen, Germany) for 15 min at RT followed by centrifugation for 2 min at 4500 rpm. Subsequently, aliquots (50 µL) of both layers were collected and measured in the gamma counter (Wizard2 3”, Perkin Elmer, Waltham, MA, USA) followed by logD calculation (n = 3, six replicates).

[4] = molecular target: immobilized RTX-TCO; assay: Competitive binding assay on immobilized RTX-TCO; settings: non-labelled conjugate as competitor, 30 min RT
Procedure: Binding on immobilized RTX-TCO was conducted using high protein-binding capacity Nunc MaxiSorp™ 96-well plates (Thermo Fisher Scientific, Vienna, Austria). Coating was performed by adding 20 µg of antibody (RTX or RTX-TCO) dissolved in 100 µL coating buffer (0.1 M NaHCO3, pH 8.5) to each well and after 2 h incubation at RT the plate was left at 4 °C overnight both under the exclusion of light. After removal of the coating solution 200 µL of blocking buffer (1% BSA in PBS) was added, left for 1 h at room temperature and subsequently each well was washed twice with 200 µL binding buffer (0.1% BSA in PBS). Hereafter, the radioligand was mixed with increasing concentrations of the competitor (=non-labelled conjugate), diluted in binding buffer and 100 µL of the mixture was added to each well. After 30 min at RT the supernatant was removed, each well was washed three times with 150 µL binding buffer and the coating film was finally detached with 2 × 150 µL of hot (80 °C) 2 N sodium hydroxide (NaOH). The NaOH fraction was taken for gamma counter measurement to determine the percentage of binding in contrast to the standard followed by non-liner curve fitting using Origin 6.1 software (Origin Inc., Northampton, MA, USA) to calculate the apparent half maximum inhibitory concentration of the competitor (n = 3, 4 replicates).

[5] = radioligand [^68Ga]Ga-Tz-dimer, read-out: Competitor concentration reducing binding of [^68Ga]Ga-Tz-dimer by 50%
[6] = radioligand [^68Ga]Ga-Tz-monomer, read-out: Competitor concentration reducing binding of [^68Ga]Ga-Tz-monomer by 50%
[7] = radioligand [^68Ga]Ga-Tz-trimer, read-out: Competitor concentration reducing binding of [^68Ga]Ga-Tz-trimer by 50%

| Compound | Target specificity by FACS [1] | Protein Binding (%) 1 h ([2]; 1 h) [%] | Protein Binding (%) 2 h ([2]; 2 h) [%] | Protein Binding (%) 4 h ([2]; 4 h) [%] | LogD (pH 7.4) [3] | IC50 [4, 5] [nM] | IC50 [4, 6] [nM] | IC50 [4, 7] [nM] | fraction unbound at 1 h ([2]; 1 h) | fraction unbound at 2 h ([2]; 2 h) | fraction unbound at 4 h ([2]; 4 h) | logD ([3]; octanol/PBS (1:1, v/v), pH 7.4, ^68Ga-labelled compound) |
| --- | --- | --- | --- | --- | --- | --- | --- | --- | --- | --- | --- | --- |
| TCO-modified RTX: anti-CD20 monoclonal antibody rituximab modified with trans-cyclooctene (TCO-NHS ester) | high target specificity | – | – | – | – | – | – | – | – | – | – | – |
| CC(=O)NC1CCCN(O)C(=O)/C=C(/C)CCOC(=O)C(NC(=O)CCOCCOCCOCCOCCOCCC(=O)NCc2ccc(-c3nncnn3)cc2)CCCN(O)C(=O)/C=C(/C)CCOC(=O)C(NC(=O)CCOCCOCCOCCOCCOCCC(=O)NCc2ccc(-c3nncnn3)cc2)CCCN(O)C(=O)/C=C(/C)CCOC1=O (centres unmarked) [Tz-dimer, MAFC-(PEG5-Tz)2] | – | 67.0 ± 2.4 | 65.9 ± 1.3 | 68.4 ± 0.3 | −1.35 ± 0.01 | 95 ± 25 | 112 ± 6 | 258 ± 60 | – | – | – | – |
| C/C1=C/C(=O)N(O)CCCC(NC(=O)CCOCCOCCOCCOCCOCCC(=O)NCc2ccc(-c3nncnn3)cc2)C(=O)OCC/C(C)=C\C(=O)N(O)CCCC(NC(=O)CCOCCOCCOCCOCCOCCC(=O)NCc2ccc(-c3nncnn3)cc2)C(=O)OCC/C(C)=C\C(=O)N(O)CCCC(NC(=O)CCOCCOCCOCCOCCOCCC(=O)NCc2ccc(-c3nncnn3)cc2)C(=O)OCC1 (centres unmarked) [Tz-trimer, FSC-(PEG5-Tz)3] | – | 70.5 ± 0.7 | 69.5 ± 0.4 | 67.8 ± 0.4 | −1.00 ± 0.06 | 92 ± 15 | 100 ± 10 | 147 ± 49 | – | – | – | – |
| CC(=O)NC1CCCN(O)C(=O)/C=C(/C)CCOC(=O)C(NC(=O)CCOCCOCCOCCOCCOCCC(=O)NCc2ccc(-c3nncnn3)cc2)CCCN(O)C(=O)/C=C(/C)CCOC(=O)C(NC(C)=O)CCCN(O)C(=O)/C=C(/C)CCOC1=O (centres unmarked) [Tz-monomer, DAFC-PEG5-Tz] | – | – | – | – | – | 865 ± 263 | 486 ± 52 | 2990 ± 1660 | 0.382 | 0.362 | 0.36 | -1.64 ± 0.02 |
| rituximab [non-modified RTX, reference compound] | high target specificity | – | – | – | – | – | – | – | – | – | – | – |
